In patent US20240132513A1, “BENZAZEPINE DERIVATIVES, COMPOSITIONS, AND METHODS FOR TREATING COGNITIVE IMPAIRMENT” (AGENEBIO, INC., priority 2022, published 2024):
Read-outs that look alike come from different tables or passages of the source.

Key:
[1] = target: α5β3γ2 GABAA R (Homo sapiens, UniProt P18507+P31644); experiment: Binding activity on GABAA R: inhibition of [3H]Ro15-1788 binding, α5 containing receptor
Summary of the method: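 Displacement of [3H]Ro15-1788 (flumazenil) measured at 4 °C over 1 h using 0.2 mg/ml membrane protein from Ltk cells carrying α5β3γ2 GABAA receptors, expression induced with 0.5 μM dexamethasone for 1 day; buffer pH 7.4 KH2PO4/EDTA/KCl. 10 μM diazepam defined nonspecific binding; filter-trapped radioactivity counted, in triplicate.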

[2] = target: T1, GABAA R (α5β2γ2) (Homo sapiens, UniProt P18507+P31644); experiment: Positive allosteric modulator activity: potentiation of EC20 GABA current in oocytes; assay type: cell-based
T1 construct: expressed in transfected cells
Description: On day 1, 1 ng/32 nL of GABAA α5β2γ2 cDNA was injected into one oocyte. Test starts on day 2. The cDNA injected to the oocytes was a mix of alpha, beta and gamma, their ratio is 1:1:10 (by weight) and the total weight of the mixed 3 subunits to be injected in one oocyte was 1 ng in 32 nl volume. The injected oocytes can also be tested on day 3. In such case, the cDNA amount injected to the oocytes should be reduced by 20%.
Compounds of the present disclosure were tested using the following procedures.
8 oocytes were placed in 8 chambers of OpusXpress and superfused with Modified Barth's Saline (MBS) at 3 mL/min. Glass electrodes back-filled with 3M KCl (0.5-3 megaohms) were used. Membrane potential of oocytes was voltage-clamped at −60 mV. • 2).
Control Test (Diazepam or Methyl 3,5-Diphenylpyridazine-4-Carboxylate) • 1). New oocytes was used to run new test. • 2). […] Oocytes were washed with MBS for 5-10 min. • 4). […] Itest was divided by IGABA to obtain potentiation (%).
Test Compounds at Multiple Doses • 1). Repeat the above steps 1), 2) and 3) in the control test. • 2). […] Divide Itest by IGABA to obtain potentiation (%). • 3). Discard all tested oocytes, new oocytes were used and the above steps 1) and 2) were repeated to test second concentration of the same compound. Each oocyte was used for only one concentration test for a single test compound. The steps were repeated for other test compounds.

[3] = ranges of the column heads, [3H]Ro15-1788, Ltk cell membranes
[4] = read-out: GABA α5 Functional Data: potentiation
[5] = read-out: GABA α5 Functional Data: potentiation, @ 100 nM, EC20 GABA, ranges of the column heads

α5β3γ2 GABAA R, sequence (P31644 32-462): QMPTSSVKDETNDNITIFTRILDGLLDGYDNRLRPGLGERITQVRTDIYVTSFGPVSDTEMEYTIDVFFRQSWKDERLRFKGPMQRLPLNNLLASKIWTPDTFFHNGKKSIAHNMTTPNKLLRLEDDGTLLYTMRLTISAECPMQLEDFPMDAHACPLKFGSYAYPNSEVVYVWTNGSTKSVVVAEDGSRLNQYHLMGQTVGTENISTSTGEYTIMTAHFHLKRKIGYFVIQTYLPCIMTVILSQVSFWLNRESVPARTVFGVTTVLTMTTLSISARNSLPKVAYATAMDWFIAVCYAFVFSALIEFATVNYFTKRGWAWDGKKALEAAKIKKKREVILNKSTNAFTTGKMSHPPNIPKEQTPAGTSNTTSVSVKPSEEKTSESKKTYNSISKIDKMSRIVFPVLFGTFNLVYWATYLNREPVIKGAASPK
α5β3γ2 GABAA R, sequence (P28472 26-473 partner): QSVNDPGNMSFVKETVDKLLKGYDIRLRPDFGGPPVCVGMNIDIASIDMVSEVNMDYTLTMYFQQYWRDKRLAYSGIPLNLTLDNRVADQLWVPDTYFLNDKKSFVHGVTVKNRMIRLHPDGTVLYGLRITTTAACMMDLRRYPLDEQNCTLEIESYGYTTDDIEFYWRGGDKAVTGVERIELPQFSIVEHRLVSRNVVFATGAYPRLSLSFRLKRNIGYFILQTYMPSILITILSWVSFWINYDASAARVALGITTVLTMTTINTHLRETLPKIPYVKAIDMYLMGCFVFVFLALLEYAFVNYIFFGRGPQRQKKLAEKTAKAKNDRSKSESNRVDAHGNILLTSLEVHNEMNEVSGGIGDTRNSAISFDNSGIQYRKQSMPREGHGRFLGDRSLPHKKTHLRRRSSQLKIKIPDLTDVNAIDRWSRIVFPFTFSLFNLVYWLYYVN
α5β3γ2 GABAA R, sequence (P18507 40-475): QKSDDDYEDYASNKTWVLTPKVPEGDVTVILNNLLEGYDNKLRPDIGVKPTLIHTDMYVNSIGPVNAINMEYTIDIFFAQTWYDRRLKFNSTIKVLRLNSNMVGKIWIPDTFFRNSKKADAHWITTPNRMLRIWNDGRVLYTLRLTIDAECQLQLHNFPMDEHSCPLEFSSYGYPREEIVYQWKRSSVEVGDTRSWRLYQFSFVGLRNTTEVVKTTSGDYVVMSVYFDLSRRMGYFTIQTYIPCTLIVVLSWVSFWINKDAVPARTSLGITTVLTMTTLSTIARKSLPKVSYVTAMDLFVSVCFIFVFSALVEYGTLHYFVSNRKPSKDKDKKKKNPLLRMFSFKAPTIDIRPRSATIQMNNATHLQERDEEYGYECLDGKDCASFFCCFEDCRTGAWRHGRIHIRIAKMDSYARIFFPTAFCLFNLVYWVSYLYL
T1 sequence (P31644 32-462): as the sequence (P31644 32-462) above
T1 sequence (P47870 25-512 partner limits assumed): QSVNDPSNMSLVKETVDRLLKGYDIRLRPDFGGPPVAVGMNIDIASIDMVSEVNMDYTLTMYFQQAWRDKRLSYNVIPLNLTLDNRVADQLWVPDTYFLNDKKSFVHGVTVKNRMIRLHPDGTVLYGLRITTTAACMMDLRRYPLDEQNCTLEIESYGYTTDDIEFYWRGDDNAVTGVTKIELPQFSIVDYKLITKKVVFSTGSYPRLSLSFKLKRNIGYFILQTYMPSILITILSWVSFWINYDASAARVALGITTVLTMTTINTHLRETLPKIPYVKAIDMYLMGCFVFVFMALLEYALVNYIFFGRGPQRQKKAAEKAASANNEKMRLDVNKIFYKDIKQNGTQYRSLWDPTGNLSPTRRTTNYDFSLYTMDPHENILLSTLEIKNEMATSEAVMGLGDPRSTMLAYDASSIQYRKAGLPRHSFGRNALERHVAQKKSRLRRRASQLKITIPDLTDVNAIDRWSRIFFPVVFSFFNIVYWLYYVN
T1 sequence (P18507 40-475): as the sequence (P18507 40-475) above

SMILES: CC(C)n1cc2c(n1)-c1cc(Cl)ccc1-n1cnc(-c3noc(C(F)(F)F)n3)c1C2 [Compound 148]
- Ki [1, 3]: < 100 nM
- activation at 0.1 µM [2, 4]: 5 to 20%

SMILES: Cn1cc2c(n1)-c1cc(Cl)ccc1-n1cnc(-c3cnn(Cc4ccccn4)c3)c1C2 [Compound 190]
- Ki [1]: < 100 nM
- activation at 0.1 µM [2, 5]: 20 to 50%

SMILES: Cn1cc2c(n1)-c1cc(Cl)ccc1-n1cnc(-c3nc(CN4CCOCC4)no3)c1C2 [Compound 250]
- Ki [1, 3]: < 100 nM
- activation at 0.1 µM [2, 4]: > 50%

SMILES: COCc1nc(-c2ncn3c2Cc2cn(CC4CCCO4)nc2-c2cc(Cl)ccc2-3)no1 (centres unmarked) [Compound 304]
- Ki [1]: < 100 nM
- activation at 0.1 µM [2, 5]: 5 to 20%

SMILES: CCn1cc2c(n1)-c1cc(OC)ccc1-n1cnc(-c3noc(C(F)(F)F)n3)c1C2 [Compound 158]
- Ki [1, 3]: < 100 nM
- activation at 0.1 µM [2, 4]: 5 to 20%

SMILES: COc1ccc2c(c1)-c1c(cnn1C)Cc1c(-c3noc(COCC(F)(F)F)n3)ncn1-2 [Compound 184]
- Ki [1, 3]: < 100 nM
- activation at 0.1 µM [2, 4]: > 50%

SMILES: COCCn1cc2c(n1)-c1cc(Cl)ccc1-n1cnc(-c3nc(C(C)C)no3)c1C2 [Compound 111]
- Ki [1, 3]: < 100 nM
- activation at 0.1 µM [2, 4]: 20 to 50%

SMILES: CCn1cc2c(n1)-c1cc(OC)ccc1-n1cnc(-c3noc(C4CC4)n3)c1C2 [Compound 157]
- Ki [1]: < 100 nM
- activation at 0.1 µM [2, 5]: 20 to 50%

SMILES: COc1ccc2c(c1)-c1nn(C)cc1Cc1c(-c3ncc(C)o3)ncn1-2 [Compound 286]
- Ki [1]: < 100 nM
- activation at 0.1 µM [2, 5]: 5 to 20%

SMILES: COc1ccc2c(c1)-c1nn(CC3CCOC3)cc1Cc1c(-c3nc(C(C)C)no3)ncn1-2 (centres unmarked) [Compound 245]
- Ki [1]: < 100 nM
- activation at 0.1 µM [2, 5]: 20 to 50%

SMILES: COc1ccc2c(c1)-c1nn(C)cc1Cc1c(-c3nc([C@H]4CCOC4)no3)ncn1-2 [Compound 252]
- Ki [1]: < 100 nM
- activation at 0.1 µM [2, 5]: 20 to 50%

SMILES: COc1ccc2c(c1)-c1nn(C)cc1Cc1c(-c3noc(C4(F)CC4)n3)ncn1-2 [Compound 205]
- Ki [1]: < 100 nM
- activation at 0.1 µM [2, 5]: 20 to 50%

SMILES: Cc1noc(-c2ncn3c2Cc2cn(CC4CCOC4)nc2-c2cc(Cl)ccc2-3)n1 (centres unmarked) [Compound 161]
- Ki [1]: < 100 nM
- activation at 0.1 µM [2, 5]: 20 to 50%

SMILES: COc1ccc2c(c1)-c1nn(C3CCOC3)cc1Cc1c(-c3nc(C(F)(F)F)no3)ncn1-2 (centres unmarked) [Compound 263]
- Ki [1]: < 100 nM
- activation at 0.1 µM [2, 5]: 5 to 20%

SMILES: Cc1nc(-c2ncn3c2Cc2cn(C)nc2-c2cc(Cl)ccc2-3)no1 [Compound 140]
- Ki [1]: < 100 nM
- activation at 0.1 µM [2, 5]: 5 to 20%

SMILES: Cn1cc2c(n1)-c1cc(Cl)ccc1-n1cnc(-c3nc(C(F)(F)F)no3)c1C2 [Compound 122]
- Ki [1]: < 100 nM
- activation at 0.1 µM [2, 5]: 5 to 20%

SMILES: COC(C)(C)c1nc(-c2ncn3c2Cc2cn(CC4CCCO4)nc2-c2cc(Cl)ccc2-3)no1 (centres unmarked) [Compound 306]
- Ki [1]: < 100 nM
- activation at 0.1 µM [2, 5]: 5 to 20%

SMILES: COc1ccc2c(c1)-c1nn(CC3COC3)cc1Cc1c(-c3noc(COCC(F)(F)F)n3)ncn1-2 [Compound 314]
- Ki [1]: < 100 nM
- activation at 0.1 µM [2, 5]: 5 to 20%

SMILES: CCn1cc2c(n1)-c1cc(OC)ccc1-n1cnc(-c3nc(COC)no3)c1C2 [Compound 236]
- Ki [1]: < 100 nM
- activation at 0.1 µM [2, 5]: 20 to 50%

SMILES: COc1ccc2c(c1)-c1nn(CC3CCCO3)cc1Cc1c(-c3nnc(COCC(F)(F)F)o3)ncn1-2 (centres unmarked) [Compound 303]
- Ki [1]: < 100 nM
- activation at 0.1 µM [2, 5]: 20 to 50%

SMILES: Cc1noc(-c2ncn3c2Cc2cn(C(C)C)nc2-c2cc(Cl)ccc2-3)n1 [Compound 160]
- Ki [1]: < 100 nM
- activation at 0.1 µM [2, 5]: 20 to 50%

SMILES: FC(F)(F)COCc1nc(-c2ncn3c2Cc2cn(CC4CCCO4)nc2-c2cc(Cl)ccc2-3)no1 (centres unmarked) [Compound 309]
- Ki [1]: < 100 nM
- activation at 0.1 µM [2, 5]: 5 to 20%

SMILES: COc1ccc2c(c1)-c1nn(C)cc1Cc1c(-c3noc(COCC(F)(F)F)n3)ncn1-2 [Compound 183]
- Ki [1]: < 100 nM
- activation at 0.1 µM [2, 5]: > 50%

SMILES: COc1ccc2c(c1)-c1nn(C)cc1Cc1c(-c3noc(C(C)(C)OC)n3)ncn1-2 [Compound 185]
- Ki [1]: < 100 nM
- activation at 0.1 µM [2, 5]: 20 to 50%

SMILES: COCc1nc(-c2ncn3c2Cc2cn(CC4CCCO4)nc2-c2cc(OC)ccc2-3)no1 (centres unmarked) [Compound 293]
- Ki [1]: < 100 nM
- activation at 0.1 µM [2, 5]: 20 to 50%

SMILES: COc1ccc2c(c1)-c1nn(C3CCOC3)cc1Cc1c(-c3nc(C4CC4)no3)ncn1-2 (centres unmarked) [Compound 247]
- Ki [1]: < 100 nM
- activation at 0.1 µM [2, 5]: 20 to 50%

SMILES: COc1ccc2c(c1)-c1nn(C(C)C)cc1Cc1c(-c3noc(C(C)C)n3)ncn1-2 [Compound 114]
- Ki [1]: < 100 nM
- activation at 0.1 µM [2, 5]: 20 to 50%

SMILES: COc1ccc2c(c1)-c1c(cnn1Cc1ccccc1)Cc1c(-c3nc(C)no3)ncn1-2 [Compound 7]
- Ki [1, 3]: < 100 nM
- activation at 0.1 µM [2, 4]: 20 to 50%

SMILES: Clc1ccc2c(c1)-c1[nH]ncc1Cc1c(-c3nc(C4CCCCC4)no3)ncn1-2 [Compound 123]
- Ki [1]: < 100 nM
- activation at 0.1 µM [2, 5]: 5 to 20%

SMILES: COCc1noc(-c2ncn3c2Cc2cn(C4CCOC4)nc2-c2cc(Cl)ccc2-3)n1 (centres unmarked) [Compound 275]
- Ki [1]: < 100 nM
- activation at 0.1 µM [2, 5]: 5 to 20%

SMILES: COc1ccc2c(c1)-c1[nH]ncc1Cc1c(C#Cc3ccccn3)ncn1-2 [Compound 90]
- Ki [1, 3]: < 100 nM
- activation at 0.1 µM [2, 4]: 20 to 50%

SMILES: Cn1cc2c(n1)-c1cc(Cl)ccc1-n1cnc(-c3nc(C4COC4)no3)c1C2 [Compound 237]
- Ki [1]: < 100 nM
- activation at 0.1 µM [2, 5]: 20 to 50%

SMILES: COc1ccc2c(c1)-c1nn(C)cc1Cc1c(-c3nc(C(C)C)no3)ncn1-2 [Compound 46]
- Ki [1]: < 100 nM
- activation at 0.1 µM [2, 5]: 5 to 20%

SMILES: COc1ccc2c(c1)-c1nn(C(C)C)cc1Cc1c(-c3nc(C4CC4)no3)ncn1-2 [Compound 169]
- Ki [1, 3]: < 100 nM
- activation at 0.1 µM [2, 4]: 5 to 20%

SMILES: Cn1cc2c(n1)-c1cc(Cl)ccc1-n1cnc(-c3nnc(C(F)(F)F)o3)c1C2 [Compound 210]
- Ki [1]: < 100 nM
- activation at 0.1 µM [2, 5]: 20 to 50%

SMILES: CC(C)c1noc(-c2ncn3c2Cc2cn(CC4CCOCC4)nc2-c2cc(Cl)ccc2-3)n1 [Compound 251]
- Ki [1, 3]: < 100 nM
- activation at 0.1 µM [2, 4]: 5 to 20%

SMILES: CCn1cc2c(n1)-c1cc(Cl)ccc1-n1cnc(C3=N[C@@H](c4ccccc4)CO3)c1C2 [Compound 179]
- Ki [1]: < 100 nM
- activation at 0.1 µM [2, 5]: 20 to 50%

SMILES: CCOCc1nc(-c2ncn3c2Cc2cn(C)nc2-c2cc(Cl)ccc2-3)no1 [Compound 243]
- Ki [1, 3]: < 100 nM
- activation at 0.1 µM [2, 4]: 5 to 20%

SMILES: FC(F)(F)c1noc(-c2ncn3c2Cc2cn(CC4CCOC4)nc2-c2cc(Cl)ccc2-3)n1 (centres unmarked) [Compound 200]
- Ki [1, 3]: < 100 nM
- activation at 0.1 µM [2, 4]: 20 to 50%

SMILES: CC(C)c1nc(-c2ncn3c2Cc2cn(C(C)C)nc2-c2cc(Cl)ccc2-3)no1 [Compound 150]
- Ki [1]: < 100 nM
- activation at 0.1 µM [2, 5]: 20 to 50%

SMILES: COCCn1cc2c(n1)-c1cc(OC)ccc1-n1cnc(-c3noc(COCC(F)(F)F)n3)c1C2 [Compound 313]
- Ki [1]: < 100 nM
- activation at 0.1 µM [2, 5]: 5 to 20%

SMILES: COc1ccc2c(c1)-c1nn(C)cc1Cc1c(-c3nc(C(F)(F)F)no3)ncn1-2 [Compound 119]
- Ki [1]: < 100 nM
- activation at 0.1 µM [2, 5]: 5 to 20%

SMILES: Clc1ccc2c(c1)-c1nn(CC3CCCO3)cc1Cc1c(-c3cnn(Cc4ccccc4)c3)ncn1-2 (centres unmarked) [Compound 230]
- Ki [1]: < 100 nM
- activation at 0.1 µM [2, 5]: 5 to 20%

SMILES: Clc1ccc2c(c1)-c1[nH]ncc1Cc1c(-c3nc(C4CCOC4)no3)ncn1-2 (centres unmarked) [Compound 108]
- Ki [1]: < 100 nM
- activation at 0.1 µM [2, 5]: 20 to 50%

SMILES: Cc1nc(-c2ncn3c2Cc2cn(C(C)C)nc2-c2cc(Cl)ccc2-3)no1 [Compound 147]
- Ki [1, 3]: < 100 nM
- activation at 0.1 µM [2, 4]: 5 to 20%

SMILES: Cn1cc2c(n1)-c1cc(Cl)ccc1-n1cnc(-c3noc(COCC(F)(F)F)n3)c1C2 [Compound 217]
- Ki [1]: < 100 nM
- activation at 0.1 µM [2, 5]: 20 to 50%
